Reference: patent publication US10159249B2 (BAYER CROPSCIENCE AKTIENGESELLSCHAFT, priority 2013, dated 2018)
pIC50: −log10 of the molar value. Where two headings read alike, the source gives them in different places.

Columns and labels:
[1] = tested on: wild type soybean plants (Merlin and Thorne); type: in vivo; conditions: 21 days after spraying
[2] = target: Axmi428H (SEQ ID No 31) (Comamonas testosteroni, UniProt A0A8B4SBH1); test: HPPD activity in presence of inhibitor, HGD assay; type: biochemical, Pseudomonas (=Comamonas) testosteroni; conditions: 0.2 μM inhibitor
Procedure: (§1) With the HGD assay HPPD activity was measured at room temperature by adding appropriate amounts of HPPD to a solution of 200 mM Tris-HCl pH 7.6, 10 mM ascorbate, 20 μM FeSO4, 650 units of catalase, 8 μg HGA dioxygenase (HGA: homogentisate) and 600 μM HPP in a total volume of 1 ml. Initial reaction rates were determined from the increase in absorbance at 318 nm due to the formation of maleylacetoacetate (ε318=11,900 M-1 cm-1).
(§2) In cases, the symbol “>” is used this means that the value was far higher than the one indicated but could not be precisely calculated within in the range of concentration of inhibitor tested.
(§3) In the 1st column of Table 1, the HPPD employed in the assay is named and in the 2nd column of Table 1, the corresponding SEQ ID No of present invention is disclosed.

[3] = tested on: transgenic soybean T1 plants expressing PfHPPD-Evo33; type: in vivo; conditions: for number of events, herbicide tolerance class 0 (41%-100% damaged leaf area) / number of events, herbicide tolerance class 1 (16%-40% damaged leaf area) / number of events, herbicide tolerance class 2 (6%-15% damaged leaf area) / number of events, herbicide tolerance class 3 (0%-5% damaged leaf area): soybean PfHPPD-Evo33, scored after 21 days
[4] = tested on: wild type soybean Thorne; type: in vivo; conditions: scored after 21 days
[5] = tested on: Euphorbia heterophylla; test: Field trial, weed efficacy, post applied; type: in vivo; conditions: application at 5 leaf stage, assessment 14 days after application
[6] = tested on: transgenic soybean T1 plants expressing PfHPPD-Evo41; type: in vivo; conditions: for number of events, herbicide tolerance class 0 (41%-100% damaged leaf area) / number of events, herbicide tolerance class 1 (16%-40% damaged leaf area) / number of events, herbicide tolerance class 2 (6%-15% damaged leaf area) / number of events, herbicide tolerance class 3 (0%-5% damaged leaf area): soybean PfHPPD-Evo41, scored after 21 days
[7] = tested on: maize transgenic T0 events expressing Axmi309H-Evo41; type: in vivo; conditions: 100 g AI/ha, six days after application
Procedure: Regenerated T0 events from tissue culture were transplanted into two inch square pots with synthetic soil (Fafard® Mix) and controlled-released fertilizer (Haifa Multicote™; polymer-coated controlled-release fertilizer, NPK Pro 18-6-12+Micronutrients) and cultivated in the greenhouse (GH) under supplementary high pressure sodium light for 12 days at a maximum of 30° C. during the day and a minimum of 22° C. at night. Fully recovered plants were transferred into five inch square pots filled with synthetic soil and control released fertilizer under the same environmental conditions. […] All herbicide treatments were conducted in a DeVries Tracker Sprayer system with standard application protocols, which are well known in the art.
A rating of “1” was assigned to plants having a moderate tolerance with 16% to 40% damage of total leaf area. A rating of “2” was assigned to plants with good tolerance within the range of 6% to 15% damage of total leaf area.

[8] = target: FMP22 (SEQ ID No 11) (Rhodococcus jostii, UniProt A0ABU4CPN1); test: HPPD activity in presence of inhibitor, HGD assay; type: biochemical, Rhodococcus sp. (strain RHA1), isolate ro03041; conditions: 0.2 μM inhibitor
Procedure: as §1, §2, §3

[9] = target: PfHPPD336W (SEQ ID No 4) (Pseudomonas sp., UniProt P80064, G335W); test: biochemical; design: species or system Pseudomonas fluorescens
[10] = tested on: transgenic soybean T1 plants expressing PfHPPD-G336W; type: in vivo; conditions: for number of events, herbicide tolerance class 0 (41%-100% damaged leaf area) / number of events, herbicide tolerance class 1 (16%-40% damaged leaf area) / number of events, herbicide tolerance class 2 (6%-15% damaged leaf area) / number of events, herbicide tolerance class 3 (0%-5% damaged leaf area): scored after 21 days
[11] = tested on: wild type soybean Merlin; type: in vivo; conditions: scored after 21 days
[12] = soybean Thorne (wt), 6.25 g AI/ha
[13] = soybean Merlin (wt), 6.25 g AI/ha

Chain of PfHPPD336W (SEQ ID No 4) (P80064 1-354 with tags or gaps with the stated changes): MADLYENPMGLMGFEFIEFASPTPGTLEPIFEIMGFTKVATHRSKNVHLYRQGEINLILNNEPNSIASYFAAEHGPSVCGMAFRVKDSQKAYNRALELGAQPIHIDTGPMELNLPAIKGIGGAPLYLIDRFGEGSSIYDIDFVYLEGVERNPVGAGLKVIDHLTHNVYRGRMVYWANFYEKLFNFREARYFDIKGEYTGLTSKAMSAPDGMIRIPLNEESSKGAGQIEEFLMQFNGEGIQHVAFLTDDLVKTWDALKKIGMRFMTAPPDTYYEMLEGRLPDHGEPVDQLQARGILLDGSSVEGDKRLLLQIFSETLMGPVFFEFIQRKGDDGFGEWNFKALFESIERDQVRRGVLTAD
Chain of FMP22 (SEQ ID No 11) (A0ABU4CPN1 1-401): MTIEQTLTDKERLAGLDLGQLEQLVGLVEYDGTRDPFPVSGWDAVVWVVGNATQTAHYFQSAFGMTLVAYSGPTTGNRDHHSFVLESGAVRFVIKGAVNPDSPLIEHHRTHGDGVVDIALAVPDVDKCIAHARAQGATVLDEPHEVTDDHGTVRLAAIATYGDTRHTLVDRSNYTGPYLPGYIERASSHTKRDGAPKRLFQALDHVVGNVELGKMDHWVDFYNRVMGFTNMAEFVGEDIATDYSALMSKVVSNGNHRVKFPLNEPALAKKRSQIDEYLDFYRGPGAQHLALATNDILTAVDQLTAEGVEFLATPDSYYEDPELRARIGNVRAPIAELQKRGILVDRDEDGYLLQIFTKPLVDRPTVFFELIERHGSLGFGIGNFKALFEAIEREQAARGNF
Chain of Axmi428H (SEQ ID No 31) (A0A8B4SBH1 1-373): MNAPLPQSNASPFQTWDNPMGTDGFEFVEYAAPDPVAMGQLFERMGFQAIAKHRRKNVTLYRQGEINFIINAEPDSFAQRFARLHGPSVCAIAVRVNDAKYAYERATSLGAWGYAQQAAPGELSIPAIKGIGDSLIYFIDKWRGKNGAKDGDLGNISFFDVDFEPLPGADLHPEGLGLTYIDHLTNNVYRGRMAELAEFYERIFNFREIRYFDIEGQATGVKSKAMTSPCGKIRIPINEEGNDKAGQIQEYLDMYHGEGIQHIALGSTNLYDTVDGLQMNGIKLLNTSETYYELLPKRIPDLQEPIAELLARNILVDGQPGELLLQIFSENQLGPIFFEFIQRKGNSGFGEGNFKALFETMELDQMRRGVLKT

## CSc1c(C(F)(F)F)ccc(C(=O)Nc2nnnn2C)c1Cl
[1]; 6.25 g of AI/ha
  bleaching of the total leaf area: 45%-50%
[1]; 25 g of AI/ha
  damaged leaf area: 90-100%
[2]
  inhibition at 0.2 µM: 71%
[3]; most soybean T1 plants expressing PfHPPD-Evo33, 25 g AI/ha
  herbicide tolerance: high tolerance
[3]; 6.25 g AI/ha
  number of events, herbicide tolerance class 0 (41%-100% damaged leaf area): 1
  number of events, herbicide tolerance class 1 (16%-40% damaged leaf area): 0
  number of events, herbicide tolerance class 2 (6%-15% damaged leaf area): 0
  number of events, herbicide tolerance class 3 (0%-5% damaged leaf area): 11
[3]; 25 g AI/ha
  number of events, herbicide tolerance class 0 (41%-100% damaged leaf area): 1
  number of events, herbicide tolerance class 1 (16%-40% damaged leaf area): 0
  number of events, herbicide tolerance class 2 (6%-15% damaged leaf area): 2
  number of events, herbicide tolerance class 3 (0%-5% damaged leaf area): 13
[3]; 50 g AI/ha
  number of events, herbicide tolerance class 0 (41%-100% damaged leaf area): 0
  number of events, herbicide tolerance class 1 (16%-40% damaged leaf area): 4
  number of events, herbicide tolerance class 2 (6%-15% damaged leaf area): 0
  number of events, herbicide tolerance class 3 (0%-5% damaged leaf area): 0
[3]; 75 g AI/ha
  number of events, herbicide tolerance class 0 (41%-100% damaged leaf area): 0
  number of events, herbicide tolerance class 1 (16%-40% damaged leaf area): 4
  number of events, herbicide tolerance class 2 (6%-15% damaged leaf area): 0
  number of events, herbicide tolerance class 3 (0%-5% damaged leaf area): 0
[4]; [12]
  number of events, herbicide tolerance class 0 (41%-100% damaged leaf area): 4
  number of events, herbicide tolerance class 1 (16%-40% damaged leaf area): 0
  number of events, herbicide tolerance class 2 (6%-15% damaged leaf area): 0
  number of events, herbicide tolerance class 3 (0%-5% damaged leaf area): 0
[4]; soybean Thorne, 25 g AI/ha
  number of events, herbicide tolerance class 0 (41%-100% damaged leaf area): 4
  number of events, herbicide tolerance class 1 (16%-40% damaged leaf area): 0
  number of events, herbicide tolerance class 2 (6%-15% damaged leaf area): 0
  number of events, herbicide tolerance class 3 (0%-5% damaged leaf area): 0
[5]; (A) 25 g ai/ha
  Efficacy (%) Euphorbia heterophylla: 15%
[5]; (A) 75 g ai/ha
  Efficacy (%) Euphorbia heterophylla: 35%
[6]; most soybean T1 plants expressing PfHPPD-Evo41, 25 g AI/ha
  herbicide tolerance: high tolerance
[6]; several soybean T1 plants expressing PfHPPD-Evo41, 50 g AI/ha
  damaged leaf area: less than 5%
[6]; 6.25 g AI/ha
  number of events, herbicide tolerance class 0 (41%-100% damaged leaf area): 0
  number of events, herbicide tolerance class 1 (16%-40% damaged leaf area): 0
  number of events, herbicide tolerance class 2 (6%-15% damaged leaf area): 0
  number of events, herbicide tolerance class 3 (0%-5% damaged leaf area): 12
[6]; 25 g AI/ha
  number of events, herbicide tolerance class 0 (41%-100% damaged leaf area): 2
  number of events, herbicide tolerance class 1 (16%-40% damaged leaf area): 8
  number of events, herbicide tolerance class 2 (6%-15% damaged leaf area): 1
  number of events, herbicide tolerance class 3 (0%-5% damaged leaf area): 21
[6]; 50 g AI/ha
  number of events, herbicide tolerance class 0 (41%-100% damaged leaf area): 0
  number of events, herbicide tolerance class 1 (16%-40% damaged leaf area): 1
  number of events, herbicide tolerance class 2 (6%-15% damaged leaf area): 0
  number of events, herbicide tolerance class 3 (0%-5% damaged leaf area): 3
[6]; 75 g AI/ha
  number of events, herbicide tolerance class 0 (41%-100% damaged leaf area): 0
  number of events, herbicide tolerance class 1 (16%-40% damaged leaf area): 4
  number of events, herbicide tolerance class 2 (6%-15% damaged leaf area): 0
  number of events, herbicide tolerance class 3 (0%-5% damaged leaf area): 0
[7]
  number of events, herbicide tolerance class 0 (41%-100% damaged leaf area): 5
  number of events, herbicide tolerance class 1 (16%-40% damaged leaf area): 9
  number of events, herbicide tolerance class 2 (6%-15% damaged leaf area): 16
  number of events, herbicide tolerance class 3 (0%-5% damaged leaf area): 6
[8]
  inhibition at 0.2 µM: 0%
[9]
  pIC50: 6.70
[9]; 0.2 μM inhibitor, HGD assay
  % inhibition at 0.2 μM: 76%
[10]; 6.25 g AI/ha
  number of events, herbicide tolerance class 0 (41%-100% damaged leaf area): 0
  number of events, herbicide tolerance class 1 (16%-40% damaged leaf area): 0
  number of events, herbicide tolerance class 2 (6%-15% damaged leaf area): 0
  number of events, herbicide tolerance class 3 (0%-5% damaged leaf area): 12
[10]; 25 g AI/ha
  number of events, herbicide tolerance class 0 (41%-100% damaged leaf area): 0
  number of events, herbicide tolerance class 1 (16%-40% damaged leaf area): 0
  number of events, herbicide tolerance class 2 (6%-15% damaged leaf area): 0
  number of events, herbicide tolerance class 3 (0%-5% damaged leaf area): 16
[10]; 50 g AI/ha
  number of events, herbicide tolerance class 0 (41%-100% damaged leaf area): 0
  number of events, herbicide tolerance class 1 (16%-40% damaged leaf area): 4
  number of events, herbicide tolerance class 2 (6%-15% damaged leaf area): 0
  number of events, herbicide tolerance class 3 (0%-5% damaged leaf area): 0
[10]; 75 g AI/ha
  number of events, herbicide tolerance class 0 (41%-100% damaged leaf area): 0
  number of events, herbicide tolerance class 1 (16%-40% damaged leaf area): 3
  number of events, herbicide tolerance class 2 (6%-15% damaged leaf area): 1
  number of events, herbicide tolerance class 3 (0%-5% damaged leaf area): 0
[10]; in vivo
  herbicide tolerance: high tolerance
[11]; [13]
  number of events, herbicide tolerance class 0 (41%-100% damaged leaf area): 4
  number of events, herbicide tolerance class 1 (16%-40% damaged leaf area): 0
  number of events, herbicide tolerance class 2 (6%-15% damaged leaf area): 0
  number of events, herbicide tolerance class 3 (0%-5% damaged leaf area): 0
[11]; soybean Merlin, 25 g AI/ha
  number of events, herbicide tolerance class 0 (41%-100% damaged leaf area): 4
  number of events, herbicide tolerance class 1 (16%-40% damaged leaf area): 0
  number of events, herbicide tolerance class 2 (6%-15% damaged leaf area): 0
  number of events, herbicide tolerance class 3 (0%-5% damaged leaf area): 0
